Data set [1] can be described thus: Modulus and pH of FOCALSEAL-L as a function of drug loading. Conditions: loaded into the FOCALSEAL-L formulation.
Data set [2] is described as follows: In-vitro release from FocalSeal-L gel disks, flow-through dissolution tank. It counts as physicochemical. Conditions: FocalSeal-L with 1% dexamethasone and 1% amiodarone HCl; 2 mm gel disc. The source says: Method: […] The gel disks were then placed in a flow-through dissolution tank and gels were sampled over time. Residual drug was extracted from the gel disks with methanol and drug was quantitated by HPLC.

The conditions of data set [3]: cited from earlier work.

The term aqueous solubility denotes the concentration that dissolves in the medium under given conditions.

Converted amounts (≈) assume the structure as drawn. Where a name gives a salt, the structure may show the parent alone.

Turning to `CCCCc1oc2ccccc2c1C(=O)c1cc(I)c(OCCN(CC)CC)c(I)c1` [amiodarone, Amiodarone hydrochloride], the “loading level that maintains acceptable pH and modulus values” in data set [1] was “about 1.5%”. Further, in data set [2], the “time over which amiodarone HCl is released in-vitro” value was in the range of 11 to 12 days.
As for `C[C@@H]1C[C@H]2[C@@H]3CCC4=CC(=O)C=C[C@]4(C)[C@@]3(F)[C@@H](O)C[C@]2(C)[C@@]1(O)C(=O)CO` [dexamethasone free base, dexamethasone], the aqueous solubility in data set [3] is 10000 µg/mL (≈ 25.5 mM).
